The values below come from patent US20220401385A1, “Combination Therapy Based on PD-1 Signaling Inhibitors” (Kyoto University, priority 2019, published 2022).

Each structure is given as a SMILES string. Entries after “also recorded” stand apart in the source; their conditions may differ.

The subject of one assay is MethA or CT26 cells. Briefly: MethA or CT26 tumor model. The assay is classed as in vivo, BALB/c mice. As to conditions: BALB/c mouse, MethA (SPD 1 mg/kg) or CT26 (SPD 4 mg/kg), with PD-L1 antibody 2 mg/kg. The protocol:
(§1) FIG. 2-2 a-b) MethA or CT26 cells were intradermally inoculated into BALB/c mice. Ten days after inoculation, PD-L1 antibody (2 mg/kg), PD-L1 antibody+SPD (1 mg/kg for Meth A, 4 mg/kg for CT26) or SPD alone was administered. c) LLC cells were intradermally inoculated into C57BL/6 mice. Ten days after inoculation, mice were treated in the same manner as described in a-b) above. SPD was administered at 4 mg/kg. d) MC38 cells were inoculated into C57BL/6 Rag2^−/− mice. Ten days after inoculation, mice were treated in the same manner as described in a-b) above. SPD was administered at 5 mg/kg. Tumor growth curve and survival curve are shown.

The next assay relates to LLC cells. Briefly: LLC tumor model. The class given is in vivo, C57BL/6 mice. As to conditions: SPD 4 mg/kg + PD-L1 antibody. The method, then: as §1
Another assay has as its system CD44 low CD8+ T cells. Briefly: Seahorse OCR, ATP production and SRC in vitro, CD44 low cells. The note with it: SPD 0.2 μM. The class given is cell-based, mice. The protocol:
FIG. 4 CD8^+ T cells were isolated from the spleen of mice without tumor inoculation, and further isolated into CD44^+ (CD44 high) and CD44^− (CD44 low) cell populations. a) CD44 low cells were simulated with CD3/CD28 antibody beads and SPD (0.2 μM). After 30 minutes, 1 hour, 2 hours and 72 hours, OCR was measured with a Seahorse analyzer. b) At the same time, total ATP production and glycolytic pathway-derived or mitochondrial activity-derived ATP production were calculated at 30-minute, 1-hour and 2-hour. c) CD44 low cells (2×10^5 cells) were stimulated with CD3/CD28 antibody beads and SPD (0.2 μM). After 24 hours, cell proliferation was examined by means of 3H uptake. d) Spare respiratory capacity (SRC) was calculated from the OCR measurement after 72 hours in a), and results with and without SPD were compared. e) CD44 low cells were stimulated with CD3/CD28 antibody beads and SPD (0.2 μM). After 24 hours, frequencies between apoptotic and viable cells were calculated by PI and Annexin staining. f-j) CD44 high cells were analyzed under the same conditions and by the same methods as described in a-e) above. As regards statistical analysis, t-test was used for comparison of two groups, and ANOVA was used for comparison of three or more groups. * p<0.05, ** p<0.01, *** p<0.001, **** p<0.0001.
Oxygen consumption rates were measured using an XF96 Extracellular Flux Analyzer (Seahorse Bioscience). CD8^+ T cells (4×10^5) per well were seeded in a determined XF96 plate. The four chemical modulators of mitochondrial oxidative phosphorylation, which came with an XF Cell Mito Stress Test Kit (Seahorse Bioscience), were added to the module sequentially. In brief, basal OCR measurement was performed […] sequential addition of oligomycin, FCCP, and rotenone/antimycin A. SRC and ATP production rates were calculated by the following formulas:
SRC (pmo; 02/min)=OCRmaximal−OCRbasal
mitoATP (pmol ATP/min)=(OCRbasal−OCRoligo)×5.5.

For a further assay, the system named is MC38 cells. Briefly: MC38 therapy model in aged mice, tumor growth and survival. The class given is in vivo. As to conditions: 56-week old mice; combination PD-L1 antibody (2 mg/kg) + SPD (2 mg/kg). The method, then:
(§2) FIG. 7 MC38 cells (5×10^5) were intradermally inoculated into 56-week old mice, which were treated along with the treatment schedule described in FIG. 1. PD-L1 antibody (2 mg/kg) and SPD (2 mg/kg) were used. a) Tumor growth curve and survival curve are shown. b) The frequency of CD8^+ T cells among lymphocytes infiltrating into tumor (in CD45^+ gate) and the absolute number of CD8^+ T cells per mg tumor 13 days after tumor inoculation are shown. c) CD8^+ T cells were isolated from spleen cells on the same schedule as b) and cultured for 20 hours under the stimulation with CD3/CD28. Cell proliferation was examined by means of ^3H uptake. d) CD8^+ T cells were isolated from draining lymph nodes on the same schedule as b) and glycolytic pathway-derived or mitochondrial metabolism-derived ATP production was calculated by Seahorse. e) Spare respiratory capacity (SRC) was also calculated in the experiment (d).
MC38 cells (5×10^5) were intradermally injected on the right flank. […] Tumors were measured on every alternate day, and tumor volumes were calculated using the formula for typical ellipsoid, π×(length×breadth×height/6).
It is known from mouse model experiments that the effect of PD-1 inhibitory antibody therapy decreases in aged mice due to their decreased immunity. […] Spare respiratory capacity (SRC) was also calculated. […]

The next assay relates to CD8+ T cells. The experiment in a line: Seahorse ATP production and SRC of draining lymph node CD8+ T cells of treated aged mice. The note with it: 56-week old mice, SPD combination treatment group. The class given is in vivo. The method, then:
as §2
Oxygen consumption rates were measured using an XF96 Extracellular Flux Analyzer (Seahorse Bioscience). CD8^+ T cells (4×10^5) per well were seeded in a determined XF96 plate. […] In brief, basal OCR measurement was performed […] sequential addition of oligomycin, FCCP, and rotenone/antimycin A. SRC and ATP production rates were calculated by the following formulas: […]

Take `NCCCCNCCCN` [SPD, spermidine]: in the assay on MethA or CT26 cells, the “effect of SPD for enhancing the antitumor immunity of PD-1 inhibition” value was “confirmed”. The “antitumor effect of PD-1 inhibitory antibody with SPD” value in the assay on LLC cells is recorded as “exhibit the antitumor effect”. The “mitochondrial oxygen consumption (OCR)” value with CD44 low CD8+ T cells (30 minutes, 1 hour, 2 hours and 72 hours after stimulation) is recorded as “increased”. In the assay with CD44 low CD8+ T cells (1 hour after stimulation), the “ATP production via glycolytic pathway (glyco ATP)” value is given as “significantly high” and the “ATP production via intramitochondrial pathway (mito ATP)” value was “significantly high”. Also, in the assay with CD44 low CD8+ T cells (72 hours), the “spare respiratory capacity (SRC)” value is “enhanced; also recorded: significantly high”. The tumor shrinking effect entry with MC38 cells was “enhanced tumor shrinking effect”. Further, in the assay with CD8+ T cells, the “SRCs of CD8+ T cells” value is recorded as “increased” and the “production of ATP, mitochondrial metabolism-dependent” value is “increased”.
